Among the data in ChEMBL document CHEMBL1208741, “Docking and SAR studies of salacinol derivatives as alpha-glucosidase inhibitors” (Bioorg Med Chem Lett, 2010) are pIC50 values, retold here.

Structures are written as SMILES.

The assay is described as follows: Inhibition of alpha glucosidase.
As to `O=S(=O)([O-])O[C@@H](CO)CC[S@+]1C[C@@H](O)[C@H](O)[C@H]1CO`, the negative logarithm of the IC50 (pIC50) was under 3.
The value for `O=S(=O)([O-])OC[C@H](O)C[S@+]1C[C@@H](O)[C@H](O)[C@H]1CO` [SALAPRINOL] was 3.
Consider `O=S(=O)([O-])O[C@@H](CO)[C@H](O)C[S@+]1C[C@@H](O)[C@H](O)[C@H]1CO` [SALACINOL], for which the pIC50 is listed as 5.28.
As for `O=S(=O)([O-])OCCC[S@+]1C[C@@H](O)[C@H](O)[C@H]1CO`, the pIC50 is under 3.
`[O-]CC[C@H](O)C[S@+]1C[C@@H](O)[C@H](O)[C@H]1CO`: the negative-log IC50 (pIC50) was found to be 3.94.
The value for `[O-][C@@H](CO)[C@H](O)C[S@+]1C[C@@H](O)[C@H](O)[C@H]1CO` [NEOSALACINOL] was 5.1.
The value for `[O-]C[C@@H](O)[C@@H](O)C[S@+]1C[C@@H](O)[C@H](O)[C@H]1CO` was under 3.
For `O=S(=O)([O-])O[C@H](CO)[C@@H](O)C[S@+]1C[C@@H](O)[C@H](O)[C@H]1CO` the value was under 3.
